IC50 data for 28 compounds are collected here from US11976057B2, “MrgX2 antagonists” (GlaxoSmithKline Intellectual Property Development Limited, priority 2020, dated 2024).

In this experiment the target is T1, human MRGPRX2 (Homo sapiens, UniProt Q96LB1).
T1 sequence (Q96LB1 1-330): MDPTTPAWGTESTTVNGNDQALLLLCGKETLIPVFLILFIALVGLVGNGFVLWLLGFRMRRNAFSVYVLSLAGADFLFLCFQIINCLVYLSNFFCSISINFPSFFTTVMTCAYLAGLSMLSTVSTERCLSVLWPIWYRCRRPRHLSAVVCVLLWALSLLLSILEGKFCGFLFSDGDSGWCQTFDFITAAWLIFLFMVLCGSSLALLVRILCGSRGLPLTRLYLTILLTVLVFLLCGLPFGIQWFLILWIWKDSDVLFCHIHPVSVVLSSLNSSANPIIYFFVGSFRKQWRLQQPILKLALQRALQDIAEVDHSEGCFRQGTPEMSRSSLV
Description: Ca2+ mobilization assay (FLIPR TETRA): inhibition of Cortistatin-14 mediated MRGPRX2 activation. (Calcium assays in cells follow changes in intracellular calcium, usually with a dye or a luminescent sensor.)

Structures can show the parent of a compound that is named as a salt.

With `C[C@@H](C(=O)Nc1ccc(OCc2ncco2)cn1)N1CCC(F)(F)[C@@H](c2ccc(=O)[nH]c2)C1` [Example 38, (S)-2-((S)-4,4-difluoro-3-(6-oxo-1,6-dihydropyridin-3-yl)piperidin-1-yl)-N-(5-(oxazol-2-ylmethoxy)pyridin-2-yl)propanamide], the IC50 (commonly the concentration that inhibits the measured activity by half) lay in the range of 0.1 to 3.16 µM.

Compound `CC(C(=O)Nc1cc(F)c(F)cn1)N1CCC(F)(F)[C@@H](c2ccc(=O)[nH]c2)C1` (stereo partly drawn) [Example 39, 2-((S)-4,4-difluoro-3-(6-oxo-1,6-dihydropyridin-3-yl)piperidin-1-yl)-N-(4,5-difluoropyridin-2-yl)propanamide] came in with an IC50 of 0.1 to 3.16 µM.

`CC(C(=O)Nc1cc2cnn(CC3CC3)c2cn1)N1CCC(F)(F)[C@@H](c2ccc(=O)[nH]c2)C1` (stereo partly drawn) [Example 40, N-(1-(cyclopropyl-methyl)-1H-pyrazolo[3,4-c]pyridin-5-yl)-2-((S)-4,4-difluoro-3-(6-oxo-1,6-dihydropyridin-3-yl)piperidin-1-yl)propanamide] displayed an IC50 of 0.1 to 3.16 µM.

Compound `CC(C(=O)Nc1ccc(CC2CC2)cn1)N1CCC(F)(F)[C@@H](c2ccc(=O)[nH]c2)C1` (stereo partly drawn) [Example 41, N-(5-(cyclopropyl-methyl)pyridin-2-yl)-2-((S)-4,4-difluoro-3-(6-oxo-1,6-dihydropyridin-3-yl)piperidin-1-yl)propanamide] came in with an IC50 of 0.1 to 3.16 µM.

In turn, `CC(C(=O)Nc1ccc(C2CCCCC2)cn1)N1CCC(F)(F)[C@@H](c2ccc(=O)[nH]c2)C1` (stereo partly drawn) [Example 42, N-(5-cyclohexyl-pyridin-2-yl)-2-((S)-4,4-difluoro-3-(6-oxo-1,6-dihydropyridin-3-yl)piperidin-1-yl)propanamide] came in with a concentration for half-maximal inhibition (IC50) of 0.1 to 3.16 µM.

The compound `COc1ccc(NC(=O)C(C)N2CCC(F)(F)[C@@H](c3ccc(=O)[nH]c3)C2)nn1` (stereo partly drawn) [Example 43, 2-((S)-4,4-difluoro-3-(6-oxo-1,6-dihydropyridin-3-yl)piperidin-1-yl)-N-(6-methoxy-pyridazin-3-yl)propanamide] gave an IC50 of 3.16 to 31.6 µM.

As to `COc1ccc(NC(=O)C(C)N2CCC(F)(F)[C@@H](c3ccc(=O)[nH]c3)C2)nc1` (stereo partly drawn) [Example 44, 2-((S)-4,4-difluoro-3-(6-oxo-1,6-dihydropyridin-3-yl)piperidin-1-yl)-N-(5-methoxypyridin-2-yl)propanamide], the IC50 was in the range of 3.16 to 31.6 µM.

Compound `CC(C(=O)Nc1ccc(Cc2cccnc2)cn1)N1CCC(F)(F)[C@@H](c2ccc(=O)[nH]c2)C1` (stereo partly drawn) [Example 45, 2-((S)-4,4-difluoro-3-(6-oxo-1,6-dihydropyridin-3-yl)piperidin-1-yl)-N-(5-(pyridin-3-ylmethyl)pyridin-2-yl)propanamide] registered an IC50 of 3.16 to 31.6 µM.

The compound `C[C@@H](C(=O)Nc1ccc(C(=O)OC2CCCC2)cn1)N1CCC(F)(F)[C@@H](c2ccc(=O)[nH]c2)C1` [Example 46, cyclopentyl 6-((S)-2-((S)-4,4-difluoro-3-(6-oxo-1,6-dihydropyridin-3-yl)piperidin-1-yl)propanamido) nicotinate] returned an IC50 of 0.1 to 3.16 µM.

The compound `CC(C(=O)Nc1ccc(OCC2CCCC2)cn1)N1CCC(F)(F)[C@@H](c2ccc(=O)[nH]c2)C1` (stereo partly drawn) [Example 47, N-(5-(cyclopentyl-methoxy)pyridin-2-yl)-2-((S)-4,4-difluoro-3-(6-oxo-1,6-dihydropyridin-3-yl)piperidin-1-yl)propanamide] came in with an IC50 of 0.1 to 3.16 µM.

Compound `CC(C(=O)Nc1ccc(OCC(F)F)cn1)N1CCC(F)(F)[C@@H](c2ccc(=O)[nH]c2)C1` (stereo partly drawn) [Example 49, 2-((S)-4,4-difluoro-3-(6-oxo-1,6-dihydropyridin-3-yl)piperidin-1-yl)-N-(5-(2,2-difluoroethoxy)pyridin-2-yl)propanamide] gave an IC50 of 0.1 to 3.16 µM.

With `CC(C(=O)Nc1ccc(-c2cccs2)cn1)N1CCC(F)(F)[C@@H](c2ccc(=O)[nH]c2)C1` (stereo partly drawn) [Example 50, 2-((S)-4,4-difluoro-3-(6-oxo-1,6-dihydropyridin-3-yl)piperidin-1-yl)-N-(5-(thiophen-2-yl)pyridin-2-yl)propanamide], the IC50 is 0.1 to 3.16 µM.

Regarding `CC(C(=O)Nc1cc2ccn(CC3CC3)c2cn1)N1CCC(F)(F)[C@@H](c2ccc(=O)[nH]c2)C1` (stereo partly drawn) [Example 51, N-(1-(cyclopropyl-methyl)-1H-pyrrolo[2,3-c]pyridin-5-yl)-2-((S)-4,4-difluoro-3-(6-oxo-1,6-dihydropyridin-3-yl)piperidin-1-yl)propanamide], the IC50 lay within 0.1 to 3.16 µM.

In the case of `CC(C(=O)Nc1ccc(Cc2nccs2)cn1)N1CCC(F)(F)[C@@H](c2ccc(=O)[nH]c2)C1` (stereo partly drawn) [Example 52, 2-((S)-4,4-difluoro-3-(6-oxo-1,6-dihydropyridin-3-yl)piperidin-1-yl)-N-(5-(thiazol-2-ylmethyl)pyridin-2-yl)propanamide], the IC50 lay in the range of 0.1 to 3.16 µM.

Regarding `CC(C(=O)Nc1ccc(Cc2ncco2)cn1)N1CCC(F)(F)[C@@H](c2ccc(=O)[nH]c2)C1` (stereo partly drawn) [Example 53, 2-((S)-4,4-difluoro-3-(6-oxo-1,6-dihydropyridin-3-yl)piperidin-1-yl)-N-(5-(oxazol-2-ylmethy)pyridin-2-yl)propanamide], the IC50 is 3.16 to 31.6 µM.

`C[C@@H](C(=O)Nc1ccc2ccccc2n1)N1CCC(F)(F)[C@@H](c2ccc(=O)[nH]c2)C1` [Example 54, (S)-2-((S)-4,4-difluoro-3-(6-oxo-1,6-dihydropyridin-3-yl)piperidin-1-yl)-N-(quinolin-2-yl)propanamide] registered an IC50 of 0.1 to 3.16 µM.

The compound `CC(C(=O)Nc1ccc(-c2ccn(C)n2)cn1)N1CCC(F)(F)[C@@H](c2ccc(=O)[nH]c2)C1` (stereo partly drawn) [Example 55, 2-((S)-4,4-difluoro-3-(6-oxo-1,6-dihydropyridin-3-yl)piperidin-1-yl)-N-(5-(1-methyl-1H-pyrazol-3-yl)pyridin-2-yl)propanamide] came in with an IC50 of 3.16 to 31.6 µM.

With `CC(C(=O)Nc1ccc(-c2ccon2)cn1)N1CCC(F)(F)[C@@H](c2ccc(=O)[nH]c2)C1` (stereo partly drawn) [Example 56, 2-((S)-4,4-difluoro-3-(6-oxo-1,6-dihydropyridin-3-yl)piperidin-1-yl)-N-(5-(isoxazol-3-yl)pyridin-2-yl)propanamide], the concentration for half-maximal inhibition (IC50) lay in the range of 3.16 to 31.6 µM.

`CC(C(=O)Nc1ccc(Cc2ccccn2)cn1)N1CCC(F)(F)[C@@H](c2ccc(=O)[nH]c2)C1` (stereo partly drawn) [Example 57, 2-((S)-4,4-difluoro-3-(6-oxo-1,6-dihydropyridin-3-yl)piperidin-1-yl)-N-(5-(pyridin-2-ylmethyl)pyridin-2-yl)propanamide hydrochloride]: the IC50 was in the range of 0.1 to 3.16 µM.

Regarding `CC(C(=O)Nc1ccc(Oc2ccc(C#N)cc2)cn1)N1CCC(F)(F)C(c2ccc(=O)[nH]c2)C1` (stereo not shown) [Example 58, N-(5-(4-cyanophenoxy)pyridin-2-yl)-2-(4,4-difluoro-3-(6-oxo-1,6-dihydropyridin-3-yl)piperidin-1-yl)propanamide], the IC50 was in the range of 0.1 to 3.16 µM.

In turn, `C[C@@H](C(=O)Nc1ccc(Oc2cccnc2)cn1)N1CCC(F)(F)[C@@H](c2ccc(=O)[nH]c2)C1` [Example 59, (S)-2-((S)-4,4-difluoro-3-(6-oxo-1,6-dihydropyridin-3-yl)piperidin-1-yl)-N-(5-(pyridin-3-yloxy)pyridin-2-yl)propanamide] came in with an IC50 of 0.1 to 3.16 µM.

On to `C[C@@H](C(=O)Nc1cnc(Oc2ccccc2)cn1)N1CCC(F)(F)[C@@H](c2ccc(=O)[nH]c2)C1` [Example 60, (S)-2-((S)-4,4-difluoro-3-(6-oxo-1,6-dihydropyridin-3-yl)piperidin-1-yl)-N-(5-phenoxypyrazin-2-yl)propanamide], for which the IC50 is 0.01 to 0.1 µM.

`C[C@@H](C(=O)Nc1ccc(Oc2ccccn2)cn1)N1CCC(F)(F)[C@@H](c2ccc(=O)[nH]c2)C1` [Example 61, (S)-2-((S)-4,4-difluoro-3-(6-oxo-1,6-dihydropyridin-3-yl)piperidin-1-yl)-N-(5-(pyridin-2-yloxy)pyridin-2-yl)propanamide] gave an IC50 of 0.01 to 0.1 µM.

With `CC(C(=O)Nc1ccc(Oc2ccccc2C#N)nn1)N1CCC(F)(F)[C@@H](c2ccc(=O)[nH]c2)C1` (stereo partly drawn) [Example 62, N-(6-(2-cyanophenoxy)pyridazin-3-yl)-2-((S)-4,4-difluoro-3-(6-oxo-1,6-dihydropyridin-3-yl)piperidin-1-yl)propanamide], the IC50 was in the range of 3.16 to 31.6 µM.

On to `CC(C(=O)Nc1ccc(Oc2ccc(F)cc2)nn1)N1CCC(F)(F)[C@@H](c2ccc(=O)[nH]c2)C1` (stereo partly drawn) [Example 63, 2-((S)-4,4-difluoro-3-(6-oxo-1,6-dihydropyridin-3-yl)piperidin-1-yl)-N-(6-(4-fluorophenoxy)pyridazin-3-yl)propanamide], for which the IC50 was in the range of 0.1 to 3.16 µM.

Compound `CC(C(=O)Nc1ccc(Oc2ccncc2)cn1)N1CCC(F)(F)[C@@H](c2ccc(=O)[nH]c2)C1` (stereo partly drawn) [Example 64, 2-((S)-4,4-difluoro-3-(6-oxo-1,6-dihydropyridin-3-yl)piperidin-1-yl)-N-(5-(pyridin-4-yloxy)pyridin-2-yl)propanamide] had an IC50 of 0.1 to 3.16 µM.

As to `C[C@@H](C(=O)Nc1ccc(Oc2ncccc2F)cn1)N1CCC(F)(F)[C@@H](c2ccc(=O)[nH]c2)C1` [Example 65, (S)-2-((S)-4,4-difluoro-3-(6-oxo-1,6-dihydropyridin-3-yl)piperidin-1-yl)-N-(5-((3-fluoropyridin-2-yl)oxy)pyridin-2-yl)propanamide], the IC50 is 0.01 to 0.1 µM.

With `C[C@@H](C(=O)Nc1ccc(Oc2ncc(F)cc2F)cn1)N1CCC(F)(F)[C@@H](c2ccc(=O)[nH]c2)C1` [Example 66, (S)-2-((S)-4,4-difluoro-3-(6-oxo-1,6-dihydropyridin-3-yl)piperidin-1-yl)-N-(5-((3,5-difluoropyridin-2-yl)oxy)pyridin-2-yl)propanamide], the IC50 is ≤ 0.01 µM.
